Measurements published in ChEMBL document CHEMBL3507680, “University of Dundee, Gates Library screen for HepG2 cell viability”.

Assay: Human HepG2 cell viability assay in 384 well format
Format: toxicity, cell-based
Design: dose 125 nL, time 70.5 hour; concentration not given beside the values
Conditions: HepG2 cells, read-out: Inhibition

SMILES	cytotoxicity at 70.5 h [%]
Cc1nn(C)c2ncnc(N(C)CC3CCN(CC(C)C)C3)c12 (configuration not stated)	-2.77
CC(C)C(=O)N1CCN(c2ncnc3cc4c(cc23)OCCO4)CC1	-1.97
CS(=O)(=O)NCc1cnc2n1CCN(Cc1ccoc1)CC2	-9.11
Cc1nccn1-c1ccc(=O)n(CCNC(=O)c2cccs2)n1	-11.7
Cc1nc(CN(C)C2CCCN(c3cccnn3)C2)oc1C (configuration not stated)	3.03
CCC(CNC(=O)c1cc(CC(C)C)nn1C)N(C)CC (configuration not stated)	-8.14
COCCN(C)C[C@H]1C[C@H](CO)CN(C(=O)c2ccc(=O)n(C)c2)C1	-3.23
CO[C@H]1CN(C(=O)c2ccccn2)[C@@H]2CCCO[C@H]12	-14.9
CCn1nc(C)c2c1cnn2CC(=O)Nc1ccc(OC)cc1C	-1.46
O=C(C1CCC1)N1C[C@@H]2CC[C@H](C1)N(S(=O)(=O)c1ccccc1)C2	-8.37
CCNc1ncc2c(n1)CN(c1cccc(OC)c1)C2=O	-7.43
CN(CCCNC(=O)C1CCCN(C(N)=O)C1)S(C)(=O)=O (configuration not stated)	-9.57
Cc1cc(N2CCC(c3n[nH]c4nccnc34)CC2)ncn1	19
CN(C)CCO[C@H]1CN(Cc2ccoc2)[C@@H]2COC[C@H]12	6.76
O=C(NCc1cc[nH]n1)NCC(O)COc1cccc(F)c1 (configuration not stated)	22.7
CC(C)CN1C(=O)CC[C@]12CC[C@@H](NC(=O)NCc1cccnc1)CC2	-3.62
COC(=O)N1CCCCC1C(=O)N1CCN(c2ncccc2C)CC1 (configuration not stated)	-1.8
CC1CN(c2ccc(C#N)cn2)CCN1c1ccc2nncn2n1 (configuration not stated)	-4.47
COC(=O)c1ccc(CCn2cnc(C#N)n2)cc1	13.2
C=C(C)COc1ccccc1C(=O)NCc1nc(C)cc(=O)[nH]1	-11.2
COC(=O)c1cccc(S(=O)(=O)NC(=O)COC2CCCC2)c1	-11.9
CN1CC(=O)N(c2cccc(F)c2)CC12CCN(Cc1ccccn1)C2 (configuration not stated)	-1.03
CCS(=O)(=O)N(C)C1CCN(C(=O)c2cccc(Cl)c2)CC1	-4.92

SMILES	cytotoxicity at 70.5 h [%]
N#Cc1ccc(N2CCC3(CC2)CC(N2CCOCC2)CO3)cc1 (configuration not stated)	-6.28
CN(CC(F)(F)F)C(=O)CNC(=O)Cc1ccc(O)cc1Cl	-9.7
CCn1cc(CN2CCN(CC(O)c3ccc(C)cc3C)CC2)cn1 (configuration not stated)	-4.8
COc1ncccc1CN1CCc2[nH]nc(C(=O)N3CCCC3C)c2C1 (configuration not stated)	-3.57
CCCn1ccnc1-c1nccn1CCC(N)=O	-7.75
Cc1ncsc1CCC(=O)NC1CCN(c2ccc(Cl)nn2)CC1	-13.9
O=C(c1cc(Cn2cnc3ccccc32)on1)N1CCOCC1	-17.3
O=C1CC[C@@H](CN(Cc2ccncc2)Cc2nc(-c3cccs3)no2)N1	-3.48
Cn1cc(CN2CC[C@H](O)[C@@H](n3ccc(=O)[nH]c3=O)CC2)cn1	12.4
CC(C)N1C(=O)CN(CCOCCO)CC1(C)C	-1.37
COCCCn1ccc(NS(=O)(=O)c2cc(F)c(C)cc2F)n1	-12.2
CC(=O)N1CC[C@H]2C(=O)N(c3ccsc3)CCO[C@H]2C1	-2.46
O=C([C@H]1C[C@@H]2CCN(C3CCOCC3)C[C@H]2O1)N1CCCC1	-4.47
CN(C)CCCNC(=O)c1ccc(N(C)S(C)(=O)=O)cc1Cl	-5.53
CC(C)NC(=O)CN(C)C(=O)c1c(Cl)c2ccccc2n1C	-0.0324
CSc1[nH]nc(NC(=O)c2ccncc2)c1C#N	-1.59
CC(=O)Nc1cc2c(cc1C)OCO2	21.5
Cc1cc(C)n(C2CCCN(C(=O)Cc3cn4ccsc4n3)C2)n1 (configuration not stated)	-13.1
Cc1ccc(NC2CCN(C(=O)c3n[nH]c4ccccc34)CC2)nn1	1.27
CN1C[C@@H](C(=O)NCC(F)(F)F)[C@@]2(CCc3ccccc3C(=O)N2)C1	3.97
Cc1ccc(C#N)c(N2CC(C)(C)[C@@](C)(O)C2)n1	-6.73
N#CCCCN1CCCC1Cc1ccccc1 (configuration not stated)	-3.84
CC(NC(=O)CCCOc1cccc(F)c1)c1ccncc1 (configuration not stated)	-4.8

SMILES	cytotoxicity at 70.5 h [%]
CCc1nc(CNC(=O)C2CCC(=O)N(Cc3ccccc3F)C2)no1 (configuration not stated)	-8.67
Cc1cc(C)nc(N2CCCC(C)(c3[nH]ncc3C(=O)N(C)C)C2)n1 (configuration not stated)	-4.44
Cc1nc2ccc(CN3CC4(CCOC4)CCC3=O)cc2[nH]1 (configuration not stated)	-1.05
Cc1cc(C(=O)NCC(F)(F)F)c2c(C3CCNCC3)noc2n1	25.3
COC(=O)C1CCCCN1C(=O)c1cn(C/C=C/c2ccccc2)nn1 (configuration not stated)	23.4
CC(O)CN1CCN(C(=O)c2ccc(N(C)C)nn2)CC1 (configuration not stated)	-4.33
COc1cccc2c1OCC(C(=O)N(Cc1ccncc1)CC(C)C)C2 (configuration not stated)	15.1
CCOc1ccc2nc(NC(=O)c3c(C(=O)O)cnn3C)sc2c1	-14.2
COCC(=O)Nc1ccc2c(c1)C1(CCOCC1)CN2CCF	16.5
O=C1COC2(CCN(Cc3ccoc3)CC2)CN1c1ccsc1	-15.9
CCCC(Nc1c(C#N)c(=O)n(C)c(=O)n1C)c1ccc(F)cc1F (configuration not stated)	9.48
CCSc1cncc(N2CCC(C(=O)NC(C)C(C)C)CC2)n1 (configuration not stated)	-3.06
NCc1ccccc1Sc1ccc(O)cc1	-8.8
CCc1cc(N[C@H]2CCC[C@H]2O)n2nccc2n1	7.67
Cc1nn(C(C)C)c(C)c1S(=O)(=O)Nc1cccc(C(=O)O)c1	-5.93
CN(CCc1ccccn1)C(=O)CCC1CCCN(S(C)(=O)=O)C1 (configuration not stated)	3.47
O=C(Nc1cc[nH]n1)c1ccc(COCC(F)(F)F)cc1	-4
O=C1CC(NS(=O)(=O)N2CCOCC2)CN1Cc1ccc(F)cc1 (configuration not stated)	-2.75
Cc1ncc(CN2Cc3ccccc3O[C@]3(CC[C@H](CO)CC3)C2)cn1	-2.89
Cc1cnn(CC(C)NCc2nc(-c3ccco3)no2)c1 (configuration not stated)	2.25
CC(C)Cc1nc(CCn2ccc(=O)[nH]c2=O)n(-c2ccccn2)n1	11.3
CCOc1cccnc1C(=O)N1CCC(c2ccccc2OC)C1 (configuration not stated)	-8.54
CN(C(=O)c1cccc(OCC(F)F)n1)c1ccc2c(c1)CCO2	21.4

SMILES	cytotoxicity at 70.5 h [%]
CCC(CC)C(=O)NCCC(=O)N1CCN(c2ccccn2)CC1	2.35
CC(C)Cc1cc(C(=O)NCC2CCCN(c3ccccn3)C2)on1 (configuration not stated)	9.21
Cc1ccccc1CNC(=O)Cc1c(C)nc2cc(=O)[nH]n2c1C	-2.94
CC[C@H]1CN2CC[C@H]1C[C@@H]2CNCc1ccc2c(c1)OCO2	-5.69
CN1CC2(CCN(C(=O)c3ccc4nccnc4c3)CC2)CC1=O	-4.39
CO[C@H]1CCN(C(=O)c2ccc3[nH]nnc3c2)C[C@@]12CCCO2	-6.86
CN1CCN(C(=O)c2cc3sccc3n2Cc2ccccc2F)CC1	-9.9
CCCc1nc(C(=O)N(C)Cc2cnn(-c3cccc(OC)c3)c2)cs1	-8.69
CCN(CC)Cc1cn2c(n1)CN(C(=O)c1cc(C)on1)CC2	-13.3
Cc1ccc(Cl)cc1N1CCN(CC(=O)NC(C)c2ccco2)CC1 (configuration not stated)	1.33
Cc1cccc(C)c1OCCCN1CCN(CC2CCCO2)CC1 (configuration not stated)	18.9
CC(C)C1COC2(CCN(Cc3ccco3)CC2)C1 (configuration not stated)	-7.19
Cc1cc(C)c(CNC(=O)N(C)Cc2cccc(C#N)c2)c(=O)[nH]1	-1.75
c1ccc(COC2CCN(Cc3cc4n(n3)CCCNC4)CC2)nc1	-18
CCOC(=O)C1CCCN(c2nccc(-n3nc(C)cc3C)n2)C1 (configuration not stated)	-9.69
OC1(CNCCc2csc(-c3ncccn3)n2)CCNC1 (configuration not stated)	-14.5
c1cnc(N2C[C@@H]3COC[C@]3(COCC3CCCC3)C2)nc1	-14.8
Cn1ccnc1CCNS(=O)(=O)Cc1cccc(C#N)c1	-8.33
COc1ccccc1CN1CCC(c2nn(CCN)c3nccnc23)C1 (configuration not stated)	-0.747
Cc1n[nH]c(C)c1-c1nccnc1CC1CCNC1 (configuration not stated)	-2.8
COCCN1CCOCC2(CCCN(Cc3ccc(C)o3)C2)C1 (configuration not stated)	7.21
CC(C)Oc1ccc(CNC(=O)C2CCC(=O)N2)cn1 (configuration not stated)	23
Cc1noc(CNC(=O)CN(C)c2nc3c(F)cccc3s2)n1	28.5

SMILES	cytotoxicity at 70.5 h [%]
COC(=O)CCC(=O)N1CCc2nc(C(=O)N3CCCCC3)sc2CC1	-1.33
CN(Cc1cc(-c2cccnc2)no1)C(=O)[C@@H]1CSCN1C	-8.97
CO[C@@H]1CN(c2ccccc2)S(=O)(=O)[C@@]12CCN(Cc1ccccc1)C2	-1.84
Cc1ncc(S(C)(=O)=O)c(N2Cc3ccccc3C2)n1	2.76
COc1cccc(CC(=O)NCCc2nnc3n2CCCCC3)c1	18.7
Cc1cnn(CC2CN(c3ncnc4ccccc34)CCO2)c1 (configuration not stated)	31.7
CNC(=O)CN1CCC(CN(C)Cc2ccncc2Cl)CC1	-3.24
CCCC(O)CN1CCC(=O)N(CC)Cc2cc3c(cc21)OCO3 (configuration not stated)	-3.11
CC(CN1CCOCC1)n1cncc1-c1ccc2c(c1)CCCN2C (configuration not stated)	-10.1
CCN1CCOCC12CCN(C(=O)Cc1ccccc1)CC2	-11.2
O=C(c1cnccn1)N1CCN2C[C@H](OCc3ccccc3F)C[C@H]2C1	-6.71
COc1ccc(C2Nc3cc(Cl)ccc3C3=NCCN32)cc1O (configuration not stated)	-1.91
CCN1CCC2(CC1)CC(NCc1cccc(C)n1)c1ccccc1O2 (configuration not stated)	-16.9
CCOCC1CCN(C(=O)Nc2ccc3c(c2)CCCN3C)C1 (configuration not stated)	-10.4
Cc1cc(C2CCCN2C(=O)Nc2cn[nH]c2)on1 (configuration not stated)	-4.06
Cc1nc(CN(C)C2CCN(Cc3ccc4c(c3)OCCO4)C2)no1 (configuration not stated)	-2.2
CN1CCN(C(=O)c2cnsn2)c2ccc(F)cc21	-10.4
c1cc(-c2ccc3c(c2)C2(CC3)CCN(c3nncs3)CC2)ccn1	1.28
COc1cc(OC)cc(C(=O)NCC(c2cccn2C)N2CCCC2)c1 (configuration not stated)	30.6
Cc1cc(=O)[nH]c(=O)n1Cc1ncc(-c2ccccc2C(=O)O)s1	-0.441
